Test results taken from patent US20050043262A1, “Novel specific inhibitor of the cyclin kinase inhibitor p21Waf1/Cip1 and methods of using the inhibitor” (priority 2000, published 2005).
In the oligonucleotide strings, read from the 5' end, every base follows the letter of its sugar. An asterisk marks phosphorothioate; unmarked linkages are phosphodiester. Other units and linkages are bracketed, terminal groups are in braces. A string of capitals states the bases alone. d = 2'-deoxy (DNA)

Experiments:
[1] = tested on: p21^Waf1/Cip1; assay: p21 protein level by Western blot in A10 VSM cells; format: cell-based, rat; details: for p21 levels after ionizing radiation: 12 Gy, up to 4 hours
Protocol: Western blots: Cells were grown to confluence in 6 cm culture dishes and serum deprived. After transfection and or treatment with appropriate agonist, the cells were washed with phosphate-buffered saline and lysed in lysis buffer and the supernatant was Western blotted as described (Weiss et al., 1998 Am. J. Physiol., 274, p. C1521-C1529).
To determine whether antisense transfection with p21^Waf1/Cip1 antisense oligonucleotides indeed decreases p21^Waf1/Cip1 protein levels, p21^Waf1/Cip1 levels after antisense transfection were examined employing the fact that PMA is a potent inducer of p21^Waf1/Cip1 (Huang et al., 1995 Proc. Natl. Acad. Sci. U.S.A., 92, p. 4793-4797; Michieli et al., 1994 Cancer Res., 54, p. 3391-3395). Since p21^Waf1/Cip1 protein levels were induced in VSM cells between 2 and 6 hours after PMA stimulation (FIG. 4), the p21^Waf1/Cip1 levels in transfected cells after similar times of PMA stimulation were examined. […] There was no effect of the p21^Waf1/Cip1 sense (SEQ. ID NO.:2) control oligodeoxynucleotide on cellular p21^Waf1/Cip1 levels (compare with FIG. 4).
To check for specificity of protein inhibition by the antisense p21^Waf1/Cip1 oligodeoxynucleotide (SEQ. ID NO.: 1), protein levels of p21^Waf1/Cip1 and p27^Kip1 after transfection with antisense p21^Waf1/Cip1 oligodeoxynucleotide (SEQ. ID NO.:1) were examined. In these experiments the ability of antisense oligodeoxynucleotides (SEQ. ID NO.:1) to inhibit maximally stimulated CKI expression (see FIG. 4) was assessed. The cells were stimulated with PMA for 4 hours at various times after overnight serum starvation.
Western blots: Cells were grown to confluence in 6 cm culture dishes and serum deprived. After transfection and or treatment with appropriate agonist, conditioned medium was removed and saved and the cells were washed with phosphate-buffered saline and lysed in lysis buffer. Both supernatant and cell lysate were normalized to the lysate protein concentrations and Western blotted as described (Weiss R H, et al. Am J Physiol 274:C1521-C1529, 1998).
To confirm that p21 levels were increased after exposure to ionizing radiation, and that the oligonucleotides inhibit this phenomenon in A10 cells, p21 protein levels under these conditions were assayed. […] With the exception of the initial decrease in p21 levels at ½ and 1 hours, the results with the control oligonucleotides were similar to that observed in non-transfected cells.
Adriamycin is a prototypical DNA damaging agent used in the treatment of a variety of cancers. The predominantly G2 arrest seen after Adriamycin treatment has been associated with an increase in p21 levels in some cell lines (Siu W Y, et al. FEBS Lett 461:299-305, 1999). In order to determine whether similar augmentation of p21 is seen in A10 VSM cells and whether the antisense p21 oligonucleotide is inhibiting this response, these cells were treated with Adriamycin either with or without first transfecting the cells with the antisense and control oligonucleotides. Confluent VSM cells were transfected with antisense oligonucleotide to p21 or random sequence control oligonucleotide as described above. After 24 hours, the cells were exposed to Adriamycin (500 ng/ml), lysed at the indicated times after exposure, and Western blotted with p21 antibody.
Using a random sequence phosphorothioate oligodeoxynucleotide (SEQ. ID NO.:3) as a control, the effect of the antisense oligodeoxynucleotide to p21 (400 nM) on p21 and α-actin protein expression in A10 VSM cells, was examined. The lysates, normalized for protein content, were Western blotted with either p21 or α-actin antibody.

[2] = tested on: PARP; assay: PARP cleavage by immunoblot in MCF7 cells; format: cell-based, human
Protocol: As a further measure of apoptosis, cleavage of PARP was next examined. This protein is cleaved by caspases and results in appearance of Mr 85,000 and Mr 24,000 fragments, the latter of which binds irreversibly to broken ends of DNA, which assures irreversibility of apoptosis. Both breast cancer cell lines were transfected with antisense p21 and random sequence ODNs and immunoblotted with PARP antibody. […] T47D (A) and MCF7 (B) cells were grown to confluence, serum starved for 24 hours, and lipofected with antisense p21 or control ODN at the concentrations indicated. cont refers to nontransfected cells, and lipofect refers to cells treated with lipofectin but no DNA. The cells were lysed, and equal protein quantities were electrophoresed and immunoblotted with PARP antibody. The degradation product of PARP (Mr 85,000) is indicated by an arrow. MAPK is a loading control; a positive PARP cleavage control is Jurkat whole cell lysate.

For 5′-GACATCACCAGGATCGGACAT-3′, the p21 protein level ([1]; A10 VSM cells, 400 nM) was “marked inhibition”, the “p21 levels after ionizing radiation” value ([1]; A10 VSM cells) was “consistently low” and the “p21^Waf1/Cip1 protein after maximal stimulation with PMA” value ([1]; A10 VSM cells, PMA for 4 hours) was “completely inhibited”. The “PMA-induced p21^Waf1/Cip1 levels” value ([1]; A10 VSM cells, PMA stimulation up to 6 hours after transfection) was “significant attenuation” and the “Adriamycin-induced increase of p21 levels” value ([1]; transfected VSM cells, Adriamycin 500 ng/ml) was “marked attenuation”.
“5′-TGG ATC CGA CAT GTC AGA-3′ (dT*dG*dG*dA*dT*dC*dC*dG*dA*dC*dA*dT*dG*dT*dC*dA*dG*dA) [random sequence control oligonucleotide, reference compound]” was tested, and the “p21 levels after ionizing radiation” value ([1]; A10 VSM cells) was “initial slight inhibition” and the “PARP cleavage (Mr 85,000 product)” value [2] was “proapoptotic effect”.
“5′-ATC-CCC-AGC-CGG-TTC-TGA-CAT-3′ (antisense ATCCCCAGCCGGTTCTGACAT; listed as DNA, chemistry not fully specified) [antisense p21 ODN]” was tested, and the “PARP cleavage (Mr 85,000 product)” value [2] was “marked PARP cleavage”.
